From publication PMC10349806 (Nature Communications, 2023)
Numbering of substitutions follows the chain as printed. Where “and” joins values, the source holds several entries; their conditions need not be identical. Equal values may be shown once.

Columns and labels:
[1] = target: T1, PfCRT variant Y89A (Plasmodium falciparum, UniProt Q9N623, A220S/I356T/K76T/M74I/N326S/N75E/Q271E/R371I/Y89A); experiment: CQ uptake assay, oocytes expressing Y89A; assay type: cell-based
T1 sequence (Q9N623 1-424 M74I/N75E/K76T/Y89A/A220S/Q271E/N326S/I356T/R371I): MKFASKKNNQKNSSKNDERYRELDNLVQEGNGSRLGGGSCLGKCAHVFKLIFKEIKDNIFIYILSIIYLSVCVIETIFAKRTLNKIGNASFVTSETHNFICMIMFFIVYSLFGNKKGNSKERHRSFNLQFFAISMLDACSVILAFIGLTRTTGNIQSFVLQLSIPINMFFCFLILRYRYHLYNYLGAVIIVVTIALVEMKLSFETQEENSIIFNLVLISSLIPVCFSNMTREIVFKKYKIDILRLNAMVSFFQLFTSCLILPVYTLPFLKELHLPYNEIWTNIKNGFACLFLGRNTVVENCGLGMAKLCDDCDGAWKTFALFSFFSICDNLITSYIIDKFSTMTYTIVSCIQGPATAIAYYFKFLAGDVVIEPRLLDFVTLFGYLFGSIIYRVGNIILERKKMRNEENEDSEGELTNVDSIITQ
Protocol: (§1) Site-directed mutagenesis of PfCRT^Dd2 was performed as described using the megaprimer method with overlap extension[21],[54]. The primer pairs used are listed in Supplementary Table 6. Please note that a codon-optimized and oocyte-adapted version of PfCRT^Dd2 was used[22] (Supplementary Fig. 16). The resulting DNA fragment was cloned into the SP64T expression vector and verified by sequencing.
(§2) Oocytes were obtained as described previously. Briefly, adult (>2 years old) female X. laevis frogs (NASCO) were anesthetized in a cooled solution of ethyl 3-amino benzoate methanesulfonate (0.1%, w/v), followed by a surgical removal of parts of the ovary. The ovary lobes were carefully dissected and small pieces of oocytes were incubated in Ca^2+-free ND96 buffer (96 mM NaCl, 2 mM KCl, 1 mM MgCl2 buffered with 5 mM HEPES/NaOH, pH 7.5) supplemented with collagenase D (0.1%, w/v; Roche), BSA (0.5%, w/v), and 9 mm Na2HPO4 at 18 °C for 14-16 h while gentle shaking. After incubation, the oocytes were carefully washed several times with ND96 buffer (96 mM NaCl, 2 mM KCl, 1.8 mM CaCl2, 1 mM MgCl2 buffered with 5 mM HEPES/NaOH, pH 7.5) supplemented with 100 mg l^−1 gentamycin). Defolliculated and healthy-looking stage V-VI oocytes were manually selected for RNA microinjection. The RNA was generated as following: The codon-optimized sequences of PfCRT variants were cloned into the pSP64T expression vector. After vector linearization using the restriction endonucleases BamHI or SalI (New England Biolabs), transcription was performed using the in vitro SP6 mMessage mMachine Kit (Ambion)[34]. The obtained RNA was kept at −80 °C and diluted with nuclease-free water to a concentration of 0.6 μg μl^−1. Precision-bore glass capillary tubes (3.5-inch glass capillaries; Drummond Scientific Co.) were pulled on a vertical puller (P-87 Flaming/Brown micropipette puller, Sutter Instrument Co.), graduated, and placed on a microinjector (Nanoject II Auto-Nanoliter Injector, Drummond Scientific Co.). 50 nl of nuclease-free water alone (control oocytes) or 50 nl of 0.6 μg μl^−1 RNA were injected under stereomicroscopic control. Injected oocytes were incubated for 46–72 h at 18 °C with twice-daily buffer changes before usage in experiments.
(§3) Drug uptake assays were performed as described previously[21],[22],[24],[34]. […] The direction of radio-labeled drug transport is here from the mostly acidic extracellular solution (pH 4.5 or 6.0, as indicated) into the oocyte cytosol (pH ∼ 7.2), which corresponds to the efflux of drug from the acidic digestive vacuole (pH 5.2) into the parasite cytoplasm (pH 7.2). The topology of PfCRT in the oolemma is such that both the N- and C-terminus face the extracellular milieu[3],[22]. In the parasite, the N- and C-terminus face the lumen of the digestive vacuole. […] For determination of the amount of drug uptake for each oocyte, the reaction medium was removed and the oocytes were washed three times with 2 ml of ice-cold ND96 buffer. Each oocyte was individually transferred to a scintillation vial containing 5% sodium dodecyl sulfate (200 μl) for lysis. […] Oocytes that were injected with water instead of RNA were analyzed in parallel, representing the uptake of a drug by diffusion and/or endogenous permeation pathways. […] The specific PfCRT-mediated uptake was determined by subtracting the corresponding background value measured in water-injected oocytes from that of PfCRT-expressing oocytes. […]

[2] = target: T2, PfCRT variant H123A (Plasmodium falciparum, UniProt Q9N623, A220S/H123A/I356T/K76T/M74I/N326S/N75E/Q271E/R371I); experiment: CQ uptake assay, oocytes expressing H123A; assay type: cell-based
T2 sequence (Q9N623 1-424 M74I/N75E/K76T/H123A/A220S/Q271E/N326S/I356T/R371I): T1 sequence (Q9N623 1-424 M74I/N75E/K76T/Y89A/A220S/Q271E/N326S/I356T/R371I) with A89Y, H123A
Protocol: as §1, §2, §3

[3] = pH 4.5, single replicates, Fig 1d left
[4] = pH 6.0, single replicates, Fig 1d left

CCN(CC)CCCC(C)Nc1ccnc2cc(Cl)ccc12 (stereo not shown) [CQ, chloroquine]
Activity at pH 4.5 ([1]; Y89A, 50 µM CQ, 1 h, mean ± SEM): 0.73 ± 0.05 pmol h-1 oocyte-1 | R-value ([1]; Y89A, CQ transport at pH 4.5 / pH 6.0): 0.43 ± 0.06 | Y89A transport activity pH 4.5 [1, 3]: 0.79 pmol oocyte-1 h-1 and 0.80 pmol oocyte-1 h-1 and 0.60 pmol oocyte-1 h-1 | Y89A R-value ([1]; pH 4.5 vs pH 6.0, Fig 1d left): 0.47 and 0.40 and 0.37 | Y89A transport activity pH 6.0 [1, 4]: 1.68 pmol oocyte-1 h-1 and 1.99 pmol oocyte-1 h-1 and 1.64 pmol oocyte-1 h-1 | Activity at pH 6.0 ([2]; H123A, 50 µM CQ, 1 h, mean ± SEM): 4.85 ± 0.43 pmol h-1 oocyte-1 | R-value ([2]; H123A, CQ transport at pH 4.5 / pH 6.0): 0.36 ± 0.09 | H123A transport activity pH 4.5 [2, 3]: 1.12 pmol oocyte-1 h-1 and 2.16 pmol oocyte-1 h-1 and 1.35 pmol oocyte-1 h-1 and 2.48 pmol oocyte-1 h-1 | H123A R-value ([2]; pH 4.5 vs pH 6.0, Fig 1d left): 0.44 and 0.35 and 0.42 and 0.27 and 0.52 | H123A transport activity pH 6.0 [2, 4]: 6.18 pmol oocyte-1 h-1 and 3.21 pmol oocyte-1 h-1 and 5.14 pmol oocyte-1 h-1 and 4.96 pmol oocyte-1 h-1 and 4.77 pmol oocyte-1 h-1
